In US8685956B2, “Compositions and methods for reducing the risk of agent-induced liver toxicity” (The Board of Trustees of The University of Illinois, priority 2009, dated 2014):
Like-named read-outs stand apart in the source and are kept apart here.

Assays:
[1] = test system: inbred mouse strains; assay: APAP-induced liver toxicity in a panel of inbred mouse strains (serum ALT activity); assay type: in vivo; settings: single 300 mg/kg intraperitoneal injection, 6 hour
Procedure: A panel of inbred mouse strains was studied using an integrated genetic, transcriptional and metabolomic approach in order to better characterize genetic factors affecting susceptibility to APAP-induced liver toxicity.
The liver toxic effect of APAP was assessed by measuring the serum alanine aminotransferase (ALT) activity after a single administration of toxic level (300 mg/kg, intraperitoneal injection) APAP.

[2] = test system: hepatic glutathione; settings: after a toxic dose; James et al. 2003; cited from earlier work
[3] = molecular target: T1, Bhmt2 (Homo sapiens, UniProt Q9H2M3); settings: Szegedi et al. 2008; cited from earlier work
T1 sequence (Q9H2M3 1-363): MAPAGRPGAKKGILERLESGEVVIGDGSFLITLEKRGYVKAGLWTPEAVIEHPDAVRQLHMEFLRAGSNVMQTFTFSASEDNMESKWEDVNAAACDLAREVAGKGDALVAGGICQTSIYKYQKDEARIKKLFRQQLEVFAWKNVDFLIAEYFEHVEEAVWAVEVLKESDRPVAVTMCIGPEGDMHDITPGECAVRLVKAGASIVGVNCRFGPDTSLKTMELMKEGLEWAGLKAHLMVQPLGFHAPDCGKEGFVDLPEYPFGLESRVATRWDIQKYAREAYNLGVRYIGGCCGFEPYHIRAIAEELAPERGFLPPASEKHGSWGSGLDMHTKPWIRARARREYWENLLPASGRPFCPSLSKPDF

[4] = test system: APAP-induced liver toxicity in inbred strains with intact or deficient Bhmt2 activity; assay: Strain-specific effect of SMM or SAM co-administration on APAP-induced liver toxicity; assay type: in vivo, mouse; settings: 3 hour after APAP
Procedure: The availability of two inbred strains with allelic variants that eliminate Bhmt2 enzyme activity enabled the hypothesis that Bhmt2 is a susceptibility factor for APAP-induced liver toxicity to be tested in vivo. The effect that co-administration of SAM or SMM, which act on sequential steps in the methionine/GSH biosynthesis pathway, had on APAP-induced liver toxicity in strains with intact or deficient Bhmt2 activity was analyzed.
Hepatic glutathione (GSH) and methionine levels and the serum ALT were measured 3 hour after APAP administration to inbred strains. The R and S in the lower panel indicate whether SMM or SAM co-administration should have a protective (Rescue) effect, or not have a beneficial (Susceptible) effect on APAP-induced liver toxicity, respectively.

[5] = test system: APAP-induced hepatotoxicity; settings: cited from earlier work
[6] = test system: APAP poisoning; settings: cited from earlier work

**Q.** What does the source list for CC(=O)Nc1ccc(O)cc1 [APAP, Acetaminophen]?
**A.** liver injury (serum ALT activity) ([1]; SJL/J mice): resistant phenotype; liver injury (serum alanine aminotransferase (ALT) activity) ([1]; all strains other than SJL/J): Significant liver injury; depletion of hepatic glutathione [2]: ≤ 90%

**Q.** Which “Bhmt2 activity with the substance as methyl donor” value [3] does the source give for C[N+](C)(C)CC(=O)O [betaine] here?
**A.** Its value is “cannot use betaine as the methyl donor”.

**Q.** Which results are given for C[S+](C)CC[C@H](N)C(=O)[O-] [SMM, S-methylmethionine]?
**A.** Bhmt2 activity with the substance as methyl donor [3]: specific methyltransferase; effect of co-administration on APAP-induced liver toxicity (hepatic GSH, methionine, serum ALT) ([4]; strains with active Bhmt2 enzyme (Gly27 allele)): protective effect; effect of co-administration on APAP-induced liver toxicity (hepatic GSH, methionine, serum ALT) ([4]; strains with inactive (Ser27 allele) Bhmt2 enzyme): not in strains with inactive (Ser27 allele) enzyme

**Q.** With C[S+](CC[C@H](N)C(=O)O)C[C@H]1O[C@@H](n2cnc3c(N)ncnc32)[C@H](O)[C@@H]1O (stereo partly drawn) [SAM, S-adenosylmethionine] as the compound, how does the “hepatic GSH levels” value ([5]; C57BL/6J mice, APAP) read?
**A.** The value was “preserve hepatic GSH levels”.

**Q.** And the “attenuation of APAP-induced hepatotoxicity” value (“attenuation” below) ([5]; C57BL/6J mice)?
**A.** Its value is “attenuate APAP-induced hepatotoxicity”.

**Q.** And the “attenuation” value ([5]; previously shown)?
**A.** The value was “attenuate APAP-induced hepatotoxicity”.

**Q.** What about the “Bhmt2 activity with the substance as methyl donor” value [3] of the same compound?
**A.** Its value is “very low activity”.

**Q.** And the “effect of co-administration on APAP-induced liver toxicity (hepatic GSH, methionine, serum ALT)” value ([4]; all strains)?
**A.** The value was “protective effect in all strains”.

**Q.** For CSCC[C@H](N)C(=O)O [methionine], which “attenuation” value ([5]; previously shown) is on record?
**A.** The value was “attenuate APAP-induced hepatotoxicity”.

**Q.** With CC(=O)N[C@@H](CS)C(=O)O [N-acetylcysteine] as the compound, how does the tolerability ([6]; oral administration) read?
**A.** The tolerability was “poorly tolerated”.

**Q.** What about the “antidote effect in severe and ongoing APAP poisoning” value ([6]; patients) of the same compound?
**A.** The value was “effective antidote”.
